# According to patent US20110136788A1, “THERAPEUTIC AGENT FOR IRRITABLE BOWEL SYNDROME” (priority 2008, published 2011):
# Like-named read-outs stand apart in the source and are kept apart here.
# Columns and labels:
# [1] = test system: stress-induced bowel movement; settings: various animals, references 6-9; cited from earlier work
# [2] = test system: restraint stress-induced bowel movement, male C57BL/6 mice; assay: mouse restraint stress-induced bowel movement; type: in vivo; settings: intraperitoneal; for suppression of restraint stress-induced bowel movement: 10 min before stress loading, excreted feces in 2 hr, FIG. 2
# Experimental: Male C57BL/6 mice were used under non-fasting conditions. On the day of the test, the body weight was measured, and the mice were individually bred for 2 hr. Thereafter, the mice were placed in a mouse restraint stress cage, and the number of excreted feces in 2 hr was counted. The normal group was individually bred for 2 hr, and subsequently was bred under the same conditions, the number of excreted feces in 2 hr was counted. Each drug (same as in Example 1) was suspended in 0.5% methylcellulose, and intraperitoneally administered at a dose of 10 ml/kg 10 min before stress loading.
# [3] = test system: rat ileum peristalsis motility; assay: rat exo-vivo ileum peristalsis; settings: isolated ileum of male SD rats, intraluminal pressure; FIG. 3
# Experimental: Male SD rats were used under non-fasting conditions. On the day of the test, 4-5 cm of the ileum was isolated, and the oral side end and aboral side end were subjected to cannulation. 95% oxygen/5% carbon dioxide was passed therethrough and placed horizontally in a bath filled with a Krebs solution warmed to 37° C. A tube outflux on the aboral side was set at about 4 cm higher than the bath, 95% oxygen/5% carbon dioxide was passed from the tube on the oral side and perfused with a Krebs solution warmed to 37° C. at a flow rate of 10 cc/hr to induce peristalsis motility. Changes of the intraluminal pressure of the intestine due to the peristalsis motility of the ileum were recorded by a transducer from the tube on the oral side. A compound at various concentrations was added to the Krebs solution surrounding the ileum. When a compound at various concentrations was added, the Krebs solution was exchanged immediately before the addition.
# mouse TGR5 = molecular target: T1, mouse TGR5 (Mus musculus, UniProt Q80SS6); assay: cAMP production in CHO cell line expressing mouse TGR5 (CHO-mTGR5); type: cell-based
# T1 construct: expressed in transfected cells; host or cells: CHO cells, expression vector pAKKO-111H
# T1 sequence (Q80SS6 1-329): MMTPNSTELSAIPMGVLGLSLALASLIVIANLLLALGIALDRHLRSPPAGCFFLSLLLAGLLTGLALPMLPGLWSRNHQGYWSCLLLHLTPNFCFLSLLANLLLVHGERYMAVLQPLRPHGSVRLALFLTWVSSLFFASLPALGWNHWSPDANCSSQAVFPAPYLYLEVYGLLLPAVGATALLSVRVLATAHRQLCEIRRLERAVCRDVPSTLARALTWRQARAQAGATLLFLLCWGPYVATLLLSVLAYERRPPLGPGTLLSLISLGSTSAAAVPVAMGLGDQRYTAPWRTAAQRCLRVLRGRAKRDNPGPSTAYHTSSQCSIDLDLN
# Experimental: (§1) CHO cell line expressing mouse TGR5 (CHO-mTGR5), which was prepared by a method known per se and using the mouse TGR5 expression vector, was suspended in an assay medium (Hanks' Balanced Salt Solution (Invitrogen) added with 0.2 mM isobutylmethylxanthine and 0.1% bovine albumin) at 1×10^7 cells/ml and stood at room temperature for 30 min. Then, a compound diluted with the assay medium to each concentration was added, and the mixture was stood still at room temperature for 30 min, and the cAMP amount was measured according to the protocol of ALPHA SCREEN cAMP ASSAY KIT (Perkin Elmer). […] The EC50 value was calculated by using GraphPad PRISM (GraphPad software) from the amount of cAMP produced by each compound.
# rat TGR5 = molecular target: T2, rat TGR5 (Rattus norvegicus, UniProt Q80T02); assay: cAMP production in CHO cell line expressing rat TGR5 (CHO-rTGR5); type: cell-based
# T2 construct: expressed in transfected cells; host or cells: CHO cells
# T2 sequence (Q80T02 1-329): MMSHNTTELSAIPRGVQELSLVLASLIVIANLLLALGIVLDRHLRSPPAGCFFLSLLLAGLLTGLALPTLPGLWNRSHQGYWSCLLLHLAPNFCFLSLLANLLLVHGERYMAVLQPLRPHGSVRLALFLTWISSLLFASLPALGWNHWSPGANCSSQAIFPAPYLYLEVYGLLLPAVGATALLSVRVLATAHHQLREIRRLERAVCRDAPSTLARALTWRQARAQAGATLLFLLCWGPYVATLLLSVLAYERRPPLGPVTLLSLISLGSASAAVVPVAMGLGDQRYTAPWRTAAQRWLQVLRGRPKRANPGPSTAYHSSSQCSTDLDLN
# Experimental: [The procedure below names another species; the source lists this species under the same test.] as §1
# human TGR5 = molecular target: T3, human TGR5 (Homo sapiens, UniProt Q8TDU6); assay: cAMP production in CHO cell line expressing human TGR5 (CHO-hTGR5); type: cell-based
# T3 construct: expressed in transfected cells; host or cells: CHO cells
# T3 sequence (Q8TDU6 1-330): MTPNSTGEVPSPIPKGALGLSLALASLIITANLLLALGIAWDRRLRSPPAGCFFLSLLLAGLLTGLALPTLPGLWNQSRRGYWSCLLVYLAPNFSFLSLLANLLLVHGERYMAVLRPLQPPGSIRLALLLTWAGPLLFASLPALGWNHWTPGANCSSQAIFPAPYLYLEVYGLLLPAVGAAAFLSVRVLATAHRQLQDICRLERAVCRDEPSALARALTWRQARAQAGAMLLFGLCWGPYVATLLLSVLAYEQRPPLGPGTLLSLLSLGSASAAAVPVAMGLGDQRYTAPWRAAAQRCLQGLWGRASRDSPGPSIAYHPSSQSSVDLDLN
# Experimental: [The procedure below names another species; the source lists this species under the same test.] as §1
# [4] = CHO-rTGR5, cAMP production, read-out: EC50 value
# [5] = CHO-hTGR5, cAMP production, read-out: EC50 value
# [6] = Table 8, rat TGR5, read-out: EC50 (M) Rat
EC50 (mouse TGR5),EC50 (rat TGR5; [4]),EC50 (human TGR5; [5]),EC50 (rat TGR5; [6]),"EC50 (human TGR5; Table 8, human TGR5, read-out: EC50 (M) Human)",SMILES,suppression of stress-induced bowel movement [1],suppressive action on the restraint stress-induced bowel movement ([2]; dose 30 mg/kg),suppression of restraint stress-induced bowel movement [2],suppression of peristalsis motility of the ileum [3],suppressive action on the restraint stress-induced bowel movement ([2]; dose 10 mg/kg),suppressive action on the restraint stress-induced bowel movement ([2]; dose 3 mg/kg)
,,,,,Cc1[nH]cnc1CN1CCc2c(c3ccccc3n2C)C1=O [Alosetron],suppress stress-induced bowel movement,,,,,
,,,,,"O=C1COc2nccc(-c3ccccc3F)c2CN1Cc1cc(C(F)(F)F)cc(C(F)(F)F)c1 [Compound A, 4-[3,5-bis(trifluoromethyl)benzyl]-6-(2-fluorophenyl)-4,5-dihydropyrido[3,2-f][1,4]oxazepin-3(2H)-one]",,statistically significant suppressive action,suppressed a restraint stress-induced bowel movement in a dose-dependent manner,suppressed the peristalsis motility of the ileum in a dose-dependent manner,,
25 nM,2.4e-09 M,6.2e-10 M,,,"CC(c1cc(C(F)(F)F)cc(C(F)(F)F)c1)N1Cc2c(-c3ccccc3F)ccnc2OCC1=O (centres unmarked) [Compound B, 4-{1-[3,5-bis(trifluoromethyl)phenyl]ethyl}-6-(2-fluorophenyl)-4,5-dihydropyrido[3,2-f][1,4]oxazepin-3(2H)-one]",,statistically significant suppressive action,suppressed a restraint stress-induced bowel movement in a dose-dependent manner,,,
25 nM,9.9e-09 M,2.1e-09 M,9.9e-09 M,,"CN1C(=O)C(C)(C)N(C(=O)COc2cccc3cnccc23)c2ccc(F)cc21 [Compound C, 7-fluoro-4-[(isoquinolin-5-yloxy)acetyl]-1,3,3-trimethyl-3,4-dihydroquinoxalin-2(1H)-one]",,statistically significant suppressive action,suppressed a restraint stress-induced bowel movement in a dose-dependent manner,,statistically significant suppressive action,
730 nM,1.2e-07 M,1.6e-09 M,1.2e-07 M,,"CC(c1cc(C(F)(F)F)cc(C(F)(F)F)c1)N1CCOc2nccc(-c3ccccc3)c2C1.Cl (centres unmarked) [Compound D, 4-{1-[3,5-bis(trifluoromethyl)phenyl]ethyl}-6-phenyl-2,3,4,5-tetrahydropyrido[3,2-f][1,4]oxazepine hydrochloride]",,statistically significant suppressive action,suppressed a restraint stress-induced bowel movement in a dose-dependent manner,suppressed the peristalsis motility of the ileum in a dose-dependent manner,statistically significant suppressive action,statistically significant suppressive action
,3.2e-07 M,2.4e-07 M,,2.4e-07 M,"O=C1COc2nccc(-c3ccccc3O)c2CN1Cc1cc(C(F)(F)F)cc(C(F)(F)F)c1 [Compound E, 4-[3,5-bis(trifluoromethyl)benzyl]-6-(2-hydroxyphenyl)-4,5-dihydropyrido[3,2-f][1,4]oxazepin-3(2H)-one]",,,,suppressed the peristalsis motility of the ileum in a dose-dependent manner,,
